From patent US3937838A, “Orally active bronchospasmolytic compounds and their preparation” (priority 1966, dated 1976)
“Also recorded” adds a separate entry of the source. Where two headings read alike, the source gives them in different places.

How the values were obtained:
adrenergic receptors = details: cited from earlier work
guinea pig trachea = assay: Bronchospasmolytic effect in vitro (Example 13); details: per se
Description: The trachea from a guinea pig was dissected out and spirally cut. It was mounted in a water-jacketed bath (37°C.) in Krebs solution and aerated with oxygen (95%) and carbon dioxide (5%). Pilocarpine (2 μg/ml) was added. The load was adjusted to about 2 g and relaxations in the trachea were recorded by means of a Grass force displacement transducer and a Grass polygraph model 5 (see Example 5 above). The cumulative method was used (-)-Epinephrine was used as reference. The comparisons presented in Table 7 are based on ED50 -values.

[1] = tested on: bronchoconstriction by histamine aerosol; assay: Protecting effect against histamine aerosol in guinea pigs (Example 15); format: in vivo, guinea pig; details: Cavia porcellus, read-out: ED50 (protecting 50 percent of the animals for more than 4 minutes)
Excerpt: Male guinea pigs (200--300 g) were used. Bronchoconstriction was produced by letting the animals inhale a histamine aerosol.

[2] = Toxicity study in mice (Example 18); format: in vivo; details: mouse, in vivo, read-out: LD 50 + Standard error
Description: (§1) The toxicity was studied in mice (NMRI, male, 18-28 g) 24 hours after i.v. and oral administration. The animals were observed during five days. No further deaths occurred.

mice = assay: Toxicity study in mice (Example 18); format: in vivo; details: mouse, in vivo, po
Description: as §1

[3] = tested on: isolated guinea pig heart; assay: Effect on isolated heart from guinea pig, Langendorff (Example 16); details: per se
Description: The isolated guinea pig heart was perfused according to Langendorff. The method used is described by Anden et al. [Acta Pharmacol. et Toxicol. 21, 247, (1964)]. Contractions in the heart were recorded by a force displacement transducer and a Grass polygraph model 5. The recovery of the heart was tested with (-) epinephrine between every dose of the substance tested. Terbutaline was used as reference.

[4] = tested on: right auricle from the guinea pig; assay: Dual preparation test in vitro, effect on auricle (Example 5c); details: slow infusion, FIGS. 2-4; for cardiac stimulation in relation to bronchodilator effect: both preparations in same bath
Excerpt: [This procedure is more fully described below in Example 5 (b)].
FIG. 2 illustrates the effect of epinephrine (EPE) and terbutaline on spirally cut trachea and right auricle from the guinea pig. Both preparations are dissected out from the same animal and run under identical experimental conditions;
Both preparations are dissected out from the same animal, and run under identical experimental conditions;
Both preparations are dissected out from the same animal and run under identical experimental conditions;
The relation between the heart stimulatory effect and bronchodilator effect was studied in vitro on auricle-trachea-preparation from the guinea pig in order to compare the effect on the heart and the effect on the bronchial muscle under identical experimental conditions. Both spontaneously bearing auricle and spirally-cut trachea were placed in the same bath in Krebs solution. Both preparations were taken from the same animal.
The compound to be tested was slowly infused into the bathing solution and the tension was measured for each of the auricle and trachael preparations.
In carrying out this dual preparation test, epinephrine was used as a reference. […] Infusion of epinephrine was made over a period of ten minutes. After washing and recovery, the test solution was infused in the same manner and the effect of the test compound was compared with the effect of epinephrine.
Referring more specifically to FIG. 2, the upper portion of each chart thereof represents the tension continuously recorded of the auricle preparation (shaded area 1 for the effect of epinephrine on the auricle, ref. no. 2 for the effect of terbutaline infused at a rate of 0.2 μg/min on the auricle, and ref. no. 3 for the effect of terbutaline infused at a rate of 0.375μg/min on the auricle).

isolated rabbit heart = assay: Effect on isolated heart, Langendorff preparation (Example 5d); details: injection; FIG. 5
Description: The effect of the compound of the present invention was also studied on isolated rabbit heart (Langendorff preparation) the method used as described by Anden et al. (Acta Pharmacol. et Toxicol., 21 (1964) page 247). In this procedure, the isolated heart is mounted in a Krebs solution and the test compound is injected into it. Measurements are continuously recorded of the rate and force of contraction.
The tests using epinephrine establish a standard of comparison to evaluate subsequent test compounds in the same preparation.

[5] = tested on: sphincter of Oddi (choledochoduodenal sphincter); assay: Effect on sphincter of Oddi (Example 5e); format: in vivo, cat; details: anesthetized cats; for duodenal pressure / motility / heart rate: concurrent with sphincter effect; for common bile duct pressure / sphincter relaxation: i.v., 1 μg/kg terbutaline in FIG. 7, FIG. 8
Description: The effect of terbutaline on the choledochoduodenal sphincter of young, healthy cats was studied. Young animals weighing at least 2.0 kg were used. After being deprived of food but not water for 24 hours, they were anesthetized with pentobarbitol (40 mg/kg i.p.). The terminal portion of a common bile duct was isolated and cannulated toward the duodenum. The hepatic part of the bile duct was drained to prevent distention. The pressure was continuously recorded by the open tip technique. Details of the experimental set up have been published by Liedberg and Halabi [Acta. Chir. Scand. 136 (1970) page 208.] Heart rate was recorded on all experiments and blood pressure by arterial cannulation in some.
Referring to the upper curve of FIGS. 7 and 8, the heart rate is continuously recorded. Concurrent records are made in the middle curve and lower curve of the pressures measured respectively in the common bile duct and in the lower duodenum.
As a control in this test, the animal was also treated with 0.5 international units per kg of cholecystokinin (CCK).
In a second test of the effect of terbutaline and isoprenaline on the sphincter (see FIG. 8), the duodenal motility was measured without being affected by CCK.

bronchial asthma = assay: Clinical study in asthmatic patients (Example 6); format: in vivo, human
Description: All the patients were hospitalized for severe bronchial asthma. Before the patients were selected for the trial, spirometry was performed before and after isoprenaline inhalations to make sure that their obstruction was at least partly reversible by bronchodilating drugs. The tests were performed when the patients were in a relatively steady state of moderate asthmatic discomfort. Every morning during the trial control measurements of forced expiratory volume in one second (FEV1.0) were made. These values had to be less than 70% of the predicted normal value taking in consideration sex, age and heights. All the patients were under treatment of different drugs for their asthma. Other bronchodilating drugs were withdrawn at least 6 hours before the start of the measurements. Most of the patients were treated with steroids, antibiotics and expectorants before the start of the trial. This regimen was continued unchanged during the trial period.
Twenty-four took part in the study, 10 male and 14 female. Average age was 51 years (range 15-71 years), mean body weight 64 kg (range 44-88 kg.) and height 166 cm (range 150-187 cm).
The trial was performed as a double blind study during three consecutive days with the patients serving as their own control. […] The order of treatment was randomized according to the principle of Latin squares.
Lung function tests were made immediately before the administration of the tablets and after 1, 2, 3, 5 and 7 hours. FEV1.0 was measured using a Vitalograph spirometer. The highest value of three measurements on each occasion was used in the calculations. All the patients had been trained to perform the tests the day before the start of the trial. After 3 and 7 hours, the patients were questioned for side effects. The same, specially trained, nurse assisted throughout the whole investigation.
The "Student's" t-test was used for statistical evaluation of the results. The degree of significance for the differences is given as almost significant (p<0.05^x) significant (p<0.01^xx) and highly significant (p<0.001^xxx).

## CNC(C)C(O)c1ccccc1 (stereo not shown) [Ephedrine, 1-phenyl-2-(methylamino)propanol]
Adrenergic receptors; background
  cardiovascular side effects: palpitations and tachycardia
Adrenergic receptors; background, oral
  CNS side effects: anxiety and sleeping disturbances

## CC(C)(C)NCC(O)c1cc(OC(=O)C(C)(C)C)cc(OC(=O)C(C)(C)C)c1 (stereo not shown) [KWD2085]
Guinea pig trachea
  bronchospasmolytic effect in vitro relative to terbutaline: weaker bronchospasmolytic effect in vitro than terbutaline
[1]; 0.5 h, oral, 30 minutes before histamine
  ED50: 0.24 mg/kg
[1]; ip, 0.25 h, i.p., 15 minutes before histamine
  ED50: 0.13 mg/kg
[2]; iv
  LD50 at 24 h: 23 ± 2 mg/kg
[2]; po
  LD50 at 24 h: 2200 mg/kg
mice
  oral absorption in comparison with terbutaline: improved oral absorption in comparison with terbutaline
[3]
  direct heart effect relative to terbutaline: much less direct heart effect

## CNCC(O)c1ccc(O)c(O)c1 (stereo not shown) [epinephrine, 1-(3',4'-dihydroxyphenyl)-2-(methylamino)-ethanol]
[4]
  cardiac stimulation in relation to bronchodilator effect: affecting both the auricle and tracheal preparations over the concentration range tested
[4]; listed as Epinephrine
  cardiac stimulation in relation to bronchodilator effect: bronchodilation and heart muscle stimulation in the same concentration range
[4]; 0.375 μg/min where stated
  effect on auricle (tension): nearly doubled the maximum tension of the auricle
Adrenergic receptors; background
  adrenergic receptors stimulated: stimulates α- and β1 - as well as β2 -receptors
  cardiovascular side effects: tachycardia, increased cardiac output and sometimes an increase in blood pressure
  duration of bronchodilator activity: relatively short-lived
Isolated rabbit heart
  effect on rate and force of isolated heart: increase in the heart rate; also recorded: increase in the force of contraction; also recorded: readily observable

## CC(C)NCC(O)c1ccc(O)c(O)c1 (stereo not shown) [isoprenaline, 1-(3',4'-dihydroxyphenyl)-2-(isopropylamino)-ethanol, reference compound]
[4]
  cardiac stimulation in relation to bronchodilator effect: strong cardiac stimulants in relation to their bronchodilator effect
Adrenergic receptors; background
  adrenergic receptors stimulated: stimulates β1 and β2 -receptors equally
  duration of bronchodilator activity: relatively short-lived
Adrenergic receptors
  cardiovascular side effects: cardiovascular stimulation, especially tachycardia
[5]
  duodenal pressure / motility: inhibited duodenal motility
  heart rate: marked tachycardia
  common bile duct pressure / sphincter relaxation: reduces common bile duct pressure
[5]; listed as Isoprenaline
  duodenal pressure / motility: differed markedly from terbutaline in its effect on heart rate and intestinal activity
  heart rate: differed markedly from terbutaline in its effect on heart rate and intestinal activity

## CC(C)NCC(O)c1cc(O)cc(O)c1 (stereo not shown) [orciprenaline, 1-(3',5'-dihydroxyphenyl)-2-(isopropylamino)-ethanol, reference compound]
[4]
  cardiac stimulation in relation to bronchodilator effect: strong cardiac stimulants in relation to their bronchodilator effect
Adrenergic receptors; background, versus previously used bronchodilators
  bronchodilator potency: less potency than previously used bronchodilators
Bronchial asthma; oral single dose
  time of maximal response (FEV1.0): 2 h
Bronchial asthma; oral, terbutaline 5.0 mg, orciprenaline 20 mg, FIG. 9
  increase of FEV1.0: clearcut increase of the spirometric values

## cholecystokinin [reference compound]
[5]
  duodenal pressure / motility: markedly stimulated the duodenum
  common bile duct pressure / sphincter relaxation: relaxed the sphincter
